# Molecular target: mGluR3 (Homo sapiens, UniProt Q14832)
# Experiment: HEK293T-mGluR3-Gqi5 Calcium Mobilization Assay
# Assay type: cell-based
# Details: HEK293T-mGluR3-Gqi5 stable cell line; FLIPR Ca2+ fluorescence; with L-glutamate at EC20 concentration
# Procedure: II. Biological Assays HEK293T-mGluR3-Gqi5 Calcium Mobilization Assay Reagents: • Cells: HEK293T-mGluR3-Gqi5 Stable Cell Line (MultiSpan cat# CG1190) Culture Medium: • DMEM-GlutaMAX-1 (GIBCO #10566)+10% FBS (dialyzed & heat-inactivated, Hyclone cat# SH 30079.03), 2 mM sodium pyruvate (GIBCO #11360), 1 μg/ml puromycin (GIBCO #0399) and 250 ug/ml hygromycin (GIBCO #10687-010) HBSS (GIBCO #14025), add HEPES at 20 mM for a pH of 7.4 • 384 well cell plate: poly-D-lysine-coated, black/clear bottom microplates (Corning cat#3845) • Ca^2+ dye: FLIPR Ca-4 assay kit (Molecular Devices cat# R8142) • L-Glutamate (Sigma cat #2834) Cell Plating • Plate 8000 cells per well (1×10^5 cells/ml, in 80 μl) in a black, clear bottom, 384 well plate (Corning 3845). Incubate the cell plate for 30 minutes at RT and then incubate the cells 37° C., 5% CO2 for 16-24 hours before the assay. Ca^2+ Assay Using the FLIPR • Wash the cells with HBSS 3 times using the Bravo automated pipettor. The remaining volume of HBSS is 20 μl per well. • Add 20 μl of dye loading solution to each well and incubate the cells at 37° C., 5% CO2 for 1 hour. Prepare Compound Plate: • Serial dilute test compounds in DMSO at a 1:4 ratio, starting at al 0 mM concentration. Transfer 500 nl of the diluted compounds to a Matrix plate and add 30 μl of 37° C. HBSS, by Multidrop, to each well. The final starting concentration of the compounds is 33 uM. Prepare a solution of L-Glutamate in HBSS at 5× the EC20 concentration. Transfer to a 384 well Matrix plate using a Multidrop. The EC20 concentration is determined by a test plate before the screen. Assay: • Ca^2+ fluorescence is measured in the cells using the FLIPR Tetra (Molecular Devices). Following a baseline recording of the wells for 1 minute, add 10 ul of the diluted (5×) compounds to the cell plate and record for 3 minutes.
# Chain of mGluR3 (Q14832 23-879): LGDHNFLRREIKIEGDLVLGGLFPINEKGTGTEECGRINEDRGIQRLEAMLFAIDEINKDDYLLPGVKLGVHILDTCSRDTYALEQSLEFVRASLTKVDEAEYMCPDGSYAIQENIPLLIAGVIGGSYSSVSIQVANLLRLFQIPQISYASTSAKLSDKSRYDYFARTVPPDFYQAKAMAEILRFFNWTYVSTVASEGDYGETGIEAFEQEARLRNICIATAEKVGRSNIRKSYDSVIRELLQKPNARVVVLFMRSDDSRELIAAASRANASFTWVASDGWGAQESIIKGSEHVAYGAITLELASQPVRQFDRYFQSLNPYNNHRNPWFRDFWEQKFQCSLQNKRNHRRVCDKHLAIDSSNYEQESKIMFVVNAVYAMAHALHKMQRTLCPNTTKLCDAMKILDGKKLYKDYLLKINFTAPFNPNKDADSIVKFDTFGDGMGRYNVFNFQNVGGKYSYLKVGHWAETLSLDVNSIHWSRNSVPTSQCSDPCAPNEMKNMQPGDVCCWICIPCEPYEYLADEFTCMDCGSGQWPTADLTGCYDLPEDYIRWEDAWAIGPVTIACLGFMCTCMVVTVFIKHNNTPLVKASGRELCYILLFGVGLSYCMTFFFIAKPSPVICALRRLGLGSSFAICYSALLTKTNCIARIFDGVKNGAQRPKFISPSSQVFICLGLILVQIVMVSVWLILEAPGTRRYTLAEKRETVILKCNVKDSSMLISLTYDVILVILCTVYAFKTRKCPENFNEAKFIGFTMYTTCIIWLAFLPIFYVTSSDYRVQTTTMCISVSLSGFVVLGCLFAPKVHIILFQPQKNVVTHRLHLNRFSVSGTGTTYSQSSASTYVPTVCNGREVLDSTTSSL
row,Structure (SMILES),EC50 [nM]
1,"CC(C)c1nc(N2CCOCC2)c(C#N)c2c1CCCC2 [Compound 1, 1-Isopropyl-3-morpholin-4-yl-5,6,7,8-tetrahydroisoquinoline-4-carbonitrile]",< 1000
2,CCCc1nc(N2CCOCC2)c(C#N)c2c1COC(C)(C)C2 [Compound 2],1000 to 10000
3,CCc1nc(N2CCOCC2)c(C#N)c2c1CCCC2 [Compound 3],1000 to 10000
4,N#Cc1ccc(-c2ccccc2)nc1N1CCOCC1 [Compound 4],1000 to 10000
5,CCCc1nc(NCCN2CCOCC2)c(C#N)c2c1CCCC2 [Compound 5],1000 to 10000

# More lines, now with the values ahead:
row,EC50 [nM],Structure (SMILES)
1,1000 to 10000,CCCc1nc(NCCO)c(C#N)c2c1CCCC2 [Compound 6]
2,1000 to 10000,CCc1nc(NCCCO)c(C#N)c2c1CCCC2 [Compound 7]
3,1000 to 10000,CCc1nc(NCCN)c(C#N)c2c1CSC(C)(C)C2 [Compound 8]
